Consider 13 compounds from patent US9512406B2, “Generating hepatocytes” (The J. David Gladstone Institutes, a testamentary trust …, priority 2013, dated 2016).

Numbered stars: 1 amine (or outer) side, 2 acyl side, 3 side chain; on linkers, the order of the positions; unused ones are H or OH. Square brackets hold non-standard residues; d marks the D form. Peptide text beside a SMILES is read from it. * marks the point of attachment. X1 = CC(N[*:1])C(=O)C(F)(F)C(=O)[*:2]; Boc = CC(C)(C)OC(=O)*

One series deals with T1, calpain II (Homo sapiens, UniProt P17655).
T1 sequence (P17655 1-700): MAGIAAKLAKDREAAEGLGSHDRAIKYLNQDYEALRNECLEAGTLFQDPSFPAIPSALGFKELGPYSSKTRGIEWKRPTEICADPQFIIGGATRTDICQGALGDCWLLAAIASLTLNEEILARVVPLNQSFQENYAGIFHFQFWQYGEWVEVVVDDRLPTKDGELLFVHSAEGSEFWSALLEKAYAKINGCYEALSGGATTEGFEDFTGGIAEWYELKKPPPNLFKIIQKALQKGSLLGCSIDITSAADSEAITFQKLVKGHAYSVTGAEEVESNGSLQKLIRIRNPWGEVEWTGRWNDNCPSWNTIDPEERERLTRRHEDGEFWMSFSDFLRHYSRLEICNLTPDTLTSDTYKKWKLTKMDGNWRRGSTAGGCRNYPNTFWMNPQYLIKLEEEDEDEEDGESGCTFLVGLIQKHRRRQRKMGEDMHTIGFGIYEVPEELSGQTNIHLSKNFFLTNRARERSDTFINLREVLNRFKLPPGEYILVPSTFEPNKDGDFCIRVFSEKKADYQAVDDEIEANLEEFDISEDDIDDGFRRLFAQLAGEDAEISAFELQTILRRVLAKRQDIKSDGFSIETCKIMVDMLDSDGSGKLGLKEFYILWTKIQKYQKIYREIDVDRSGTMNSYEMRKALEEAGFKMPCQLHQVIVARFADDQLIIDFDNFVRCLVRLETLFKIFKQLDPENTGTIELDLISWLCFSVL
T1 sequence (P04632 1-268 partner): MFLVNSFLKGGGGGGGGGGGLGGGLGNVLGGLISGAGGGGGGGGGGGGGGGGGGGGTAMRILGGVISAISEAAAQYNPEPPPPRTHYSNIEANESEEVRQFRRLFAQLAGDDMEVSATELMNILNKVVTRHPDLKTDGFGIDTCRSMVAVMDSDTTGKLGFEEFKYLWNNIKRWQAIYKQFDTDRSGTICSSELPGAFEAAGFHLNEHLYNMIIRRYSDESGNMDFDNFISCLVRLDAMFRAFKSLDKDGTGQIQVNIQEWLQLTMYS
As to conditions: purified enzyme assay; read-out: IC50 against calpain II; cited from earlier work.

The test system of series [1] is histone deacetylases (HDACs). As to conditions: isoform not stated; read-out: IC50 (histone deacetylase inhibition); cited from earlier work.
In another series the target is SAPK2/p38 (Homo sapiens, UniProt Q16539). Particulars: CK1 and ALK5 inhibitor versus SAPK2/p38; cited from earlier work.
Series [2] concerns iMPC-EPCs. In words: Expansion of iMPC-EPC colonies.
Series [3] relates to iMPC-EPCs. In words: Hepatocyte differentiation of iMPC-EPCs, ALB gene expression by qRT-PCR. As to conditions: day 18 of hepatocyte specification; particularly when applied together. On the technique in general: Real-time PCR tracks product formation cycle by cycle.
Protocol: Error bars represent SEM of technical replicates (n=3).
For qRT-PCR analysis, total RNA was extracted using the miRNeasy Mini Kit (Qiagen) or RNeasy Plus Mini Kit in combination with QIAshredder (Qiagen). First-strand reverse transcription was performed with 0.5-1 μg RNA using the iScript cDNA Synthesis Kit (BioRad) or qScript cDNA Supermix (Quanta Biosciences). qRT-PCR was performed using PerfeCTa SYBR Green SuperMix (Quanta) or iQ SYBR Green Supermix (Bio-Rad) on an Applied Biosciences ViiA 7 Real-Time PCR System (Invitrogen). aHeps purchased from Yecuris or the Liver Tissue Cell Distribution System (LTCDS) were shipped overnight in suspension, centrifuged for 5 minutes at 300×g immediately after arrival, and stored as cell pellets at −80° C. prior to RNA extraction.
To improve hepatocyte differentiation, small molecules were screened for induction of ALB gene expression.
In another series the target is γ-secretase. As to conditions: for total β-amyloid; cited from earlier work.
For a further series, the system named is presenilase. As to conditions: at higher concentrations (20-400 μM); cited from earlier work.
Series [4] has as its system HDAC activity in HeLa extracts. Particulars: read-out: IC50 for inhibition of HDAC activity; cited from earlier work.
Series [5] concerns Human newborn fibroblasts (CRL-2097, ATCC). Put plainly: Reprogramming of newborn fibroblasts to endoderm, FOXA2-positive colonies by immunostaining. Particulars: day 28; added to CHIR/Activin A reprogramming medium.
Protocol: The small molecules tested included combinations of CHIR99021 (CH), dilauroyl phosphatidylcholine (DLPC), sodium butyrate (NaB), parnate (Par), and RG108 (RG). […] Medium containing Activin A was additionally supplemented with the indicated small molecules.
Standard immunostaining was carried out as previously reported. […] Nuclei were visualized by Hoechst (Sigma-Aldrich) staining. Images were captured using a Nikon Eclipse TE2000-U microscope.
Next, EGF and bFGF were replaced with Activin A to induce Nodal signaling and promote endoderm fate (see FIG. 1A). […] To improve the efficiency of endoderm differentiation, the cells were exposed to several small molecules.
The next series deals with CYP2D6 (Homo sapiens, UniProt P10635). Particulars: 2 mg/kg debrisoquine by gavage; mice repopulated with iMPC-Heps or aHeps. From the text:
Scale bar=100 μm. […] Scale bars=100 μm. […] Scale bars=100 μm.

Chain of CYP2D6 (P10635 whole entry): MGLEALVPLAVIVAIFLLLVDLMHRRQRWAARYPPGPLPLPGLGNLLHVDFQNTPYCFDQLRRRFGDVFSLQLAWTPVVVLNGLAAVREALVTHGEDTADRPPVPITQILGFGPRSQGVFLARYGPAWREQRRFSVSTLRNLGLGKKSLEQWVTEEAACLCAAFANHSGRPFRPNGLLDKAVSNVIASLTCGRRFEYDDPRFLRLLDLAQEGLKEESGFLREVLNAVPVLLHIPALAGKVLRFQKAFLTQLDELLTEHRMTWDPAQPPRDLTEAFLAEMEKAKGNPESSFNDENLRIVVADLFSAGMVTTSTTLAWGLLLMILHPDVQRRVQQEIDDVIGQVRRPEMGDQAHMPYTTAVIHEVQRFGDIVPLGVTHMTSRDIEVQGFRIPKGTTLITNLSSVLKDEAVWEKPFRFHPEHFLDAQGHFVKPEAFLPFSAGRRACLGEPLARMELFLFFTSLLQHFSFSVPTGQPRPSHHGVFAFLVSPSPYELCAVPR
Chain of SAPK2/p38 (Q16539 whole entry): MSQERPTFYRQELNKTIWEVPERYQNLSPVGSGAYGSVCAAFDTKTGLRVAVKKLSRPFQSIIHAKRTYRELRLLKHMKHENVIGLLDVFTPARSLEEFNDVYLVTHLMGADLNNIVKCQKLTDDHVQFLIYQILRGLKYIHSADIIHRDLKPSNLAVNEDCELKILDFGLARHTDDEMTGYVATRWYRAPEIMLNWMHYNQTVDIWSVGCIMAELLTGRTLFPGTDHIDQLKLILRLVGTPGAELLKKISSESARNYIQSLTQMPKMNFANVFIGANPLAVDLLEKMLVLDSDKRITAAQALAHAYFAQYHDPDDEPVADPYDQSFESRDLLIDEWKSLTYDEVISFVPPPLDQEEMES

Take `CCC(C)C(NC(=O)C(NC(=O)OC(C)(C)C)C(C)C)C(=O)NC(C)C(=O)C(F)(F)C(=O)NC(C(=O)NC(C(=O)OC)C(C)CC)C(C)C` (stereo not shown) [Gamma-Secretase Inhibitor II] (Boc-VI[X1]VI-OMe; configuration not given here): the concentration for half-maximal inhibition (IC50) at calpain II is 100000 nM.

Consider `Nc1ccccc1NC(=O)c1ccc(CNc2nccc(-c3cccnc3)n2)cc1` [MGCD0103, N-(2-aminophenyl)-4-[[(4-pyridin-3-ylpyrimidin-2-yl)amino]methyl]benzamide], for which the half-maximal inhibitory concentration (IC50) in [1] is about 100 nM.

With `CC1(C)NC(=O)C(CCCCCC(=O)[C@H]2CO2)NC(=O)C2CCCN2C(=O)[C@@H](Cc2ccccc2)NC1=O` (stereo partly drawn) [Chlamydocin, (3R)-3-benzyl-6,6-dimethyl-9-[6-[(2R)-oxiran-2-yl]-6-oxohexyl]-1,4,7,10-tetrazabicyclo[10.3.0]pentadecane-2,5,8,11-tetrone], the concentration for half-maximal inhibition (IC50) in series [1] is about 0.15 nM.

On to `NC(=O)c1ccc(-c2nc(-c3ccc4c(c3)OCCO4)c(-c3ccccn3)[nH]2)cc1` [D 4476, 4-[4-(2,3-Dihydro-1,4-benzodioxin-6-yl)-5-(2-pyridinyl)-IH-imidazol-2-yl]benzamide], for which the “selectivity over SAPK2/p38” value at SAPK2/p38 is on record as “greater than 20 fold”.

In the case of `Cc1c[nH]c(-c2cnc(NCCNc3ccc(C#N)cn3)nc2-c2ccc(Cl)cc2Cl)n1` [CHIR99021, 6-(2-(4-(2,4-dichlorophenyl)-5-(4-methyl-1H-imidazol-2-yl)pyrimidin-2-ylamino)ethylamino)nicotinonitrile], the iMPC-EPC colony size result with iMPC-EPCs [2] (CHIR99021 combined with A83-01) is given as “increased”.

As for bFGF: basic fibroblast growth factor, the iMPC-EPC colony size entry with iMPC-EPCs [2] (EGF and bFGF added to CHIR99021 and A83-01) is recorded as “further increased”.

For the compound `Cc1cccc(-c2nn(C(=S)Nc3ccccc3)cc2-c2ccnc3ccccc23)n1` [A83-01, 3-(6-Methyl-2-pyridinyl)-N-phenyl-4-(4-quinolinyl)-1H-pyrazole-1-carbothioamide], the iMPC-EPC colony size entry in the series on iMPC-EPCs [2] (CHIR99021 combined with A83-01) is recorded as “increased”. Moreover, the “induction of ALB gene expression” value in the series on iMPC-EPCs [3] is recorded as “effective”.

As for `C[C@H](NC(=O)Cc1cc(F)cc(F)c1)C(=O)N[C@H]1N=C(c2ccccc2)c2ccccc2N(C)C1=O` [Compound E], at γ-secretase, the IC50 is 0.3 nM. Moreover, the “effect on presenilase activity” value in the series with presenilase is listed as “only weakly affects”. For the same compound, the “induction of ALB gene expression” value in the series with iMPC-EPCs [3] is “effective”.

`Nc1ccccc1NC(=O)CCCCCCC(=O)Nc1ccccc1` [BML-210, N1-(2-aminophenyl)-N8-phenyl-octanediamide]: the IC50 in series [4] was about 80000 nM.

For `CCCCCCCCCCCC(=O)OC[C@H](COP(=O)([O-])OCC[N+](C)(C)C)OC(=O)CCCCCCCCCCC` [Dilauroyl phosphatidylcholine], in [5], the “increase in the number of FOXA2-positive colonies” value came to 2 fold.

For `Nc1ccccc1NC(=O)c1ccc(CNC(=O)OCc2cccnc2)cc1` [MS-27-275, pyridin-3-ylmethyl-N-[[4-[(2-aminophenyl)carbamoyl]phenyl]methyl]carbamate], in series [1], the IC50 is 100 to 1000 nM.

For `N=C(N)N1Cc2ccccc2C(O)C1` (stereo not shown) [4-hydroxydebrisoquine], the “time of peak plasma level after gavage” value at CYP2D6 was found to be 1 h.

For the compound `CC(/C=C/C(=O)NO)=C\[C@@H](C)C(=O)c1ccc(N(C)C)cc1` [Trichostatin A, (R,2E,4E)-6-(4-(dimethylamino)benzoyl)-N-hydroxy-4-methylhepta-2,4-dienamide], the IC50 in series [1] is about 1.8 nM.

One may read the IC50 as the concentration that inhibits the measured activity by half.
